The text below walks through data of patent US12428420B2, “Tricyclic heterocycles as FGFR inhibitors” (Incyte Corporation, priority 2021, dated 2025).

In one test the test system is RT-112/84 cell line. The test is described as follows: Luminescent Viability Assay (CellTiter-Glo). In kind it is cell-based. Conditions: RT-112/84 cell line (bladder, FGFR3-TACC3), 3 days. As for the experimental part: RT112 cells (cell lines and genetic profiles further detailed in Table 2) were purchased from ATCC (Manassas, VA) and maintained in RPMI, 10% FBS (Gibco/Life Technologies). To measure the effect of test compounds on the viability of cells, the cells were plated with RPMI 10% FBS (5×10^3 cells/well/in 50 μL) into black 96-well Greiner polystyrene in the presence or absence of 50 μL of a concentration range of test compounds. After 3 days, 100 μL of CellTiter-Glo Reagent (Promega) was added. Luminescence was read with a TopCount (PerkinElmer). IC50 determination was performed by fitting the curve of percent inhibition versus the log of the inhibitor concentration using the GraphPad Prism 5.0 software.
Background: Cellular ATP, detected with luciferase, serves as a proxy for viable cell number.

The target of test [1] is wild-type un-phosphorylated FGFR3 protein (Homo sapiens, UniProt P22607). The test is described as follows: FGFR Enzymatic Assay (FRET peptide phosphorylation). Conditions: pre-incubated for 4 hours. It counts as biochemical.
Protocol: The inhibitor potency of the exemplified compounds was determined in an enzyme discontinuous assay that measures peptide phosphorylation using FRET measurements to detect product formation. Inhibitors were serially diluted in DMSO and a volume of 0.2 μL was transferred to the wells of a 384-well plate. A 5 μL/well volume of enzyme isoforms of FGFR (-1, -2, -3 wild-type and mutant isoforms, -4) including phosphorylated and un-phosphorylated proteins diluted in assay buffer (50 mM HEPES, 10 mM MgCl2, 1 mM EGTA, 0.01% Tween-20, 5 mM DTT, pH 7.5) was added to the plate and pre-incubated with inhibitor for 5 to 15 minutes at ambient temperature. Appropriate controls (enzyme blank and enzyme with no inhibitor) were included on the plate. The reaction was initiated by the addition of a 5 μL/well volume containing both biotinylated [sequence] peptide substrate (SEQ ID NO: 1) and ATP in assay buffer. The 10 μL/well reaction concentration of the peptide substrate was 500 nM whereas the ATP concentration was maintained near or below the ATP Km. The ATP Km values were pre-determined in a separate series of experiments. The reaction plate was incubated at 25° C. for 1 hr and the reactions were ended with the addition of 5 μL/well of quench solution (50 mM Tris, 150 mM NaCl, 0.5 mg/mL BSA, pH 7.8; 45 mM EDTA, 600 nM staurosporin, with Perkin Elmer Lance Reagents at 3.75 nM Eu-antibody PY20 and 180 nM APC-Streptavidin). The plate was allowed to equilibrate for ˜10 minutes at ambient temperature before scanning on a PheraStar plate reader (BMG Labtech) instrument.
Either GraphPad prism or XLfit was used to analyze the data. The IC50 values were derived by fitting the data to a four parameter logistic equation producing a sigmoidal dose-response curve with a variable Hill coefficient. Prism equation: Y=Bottom+(Top−Bottom)/(1+10^((Log IC50−X)*Hill slope)); XLfit equation: Y=(A+((B−A)/(1+((X/C)^D)))) where X is the logarithm of inhibitor concentration and Y is the response.

pIC50: −log10 of the molar value.

wild-type un-phosphorylated FGFR3 protein, sequence (P22607 23-806): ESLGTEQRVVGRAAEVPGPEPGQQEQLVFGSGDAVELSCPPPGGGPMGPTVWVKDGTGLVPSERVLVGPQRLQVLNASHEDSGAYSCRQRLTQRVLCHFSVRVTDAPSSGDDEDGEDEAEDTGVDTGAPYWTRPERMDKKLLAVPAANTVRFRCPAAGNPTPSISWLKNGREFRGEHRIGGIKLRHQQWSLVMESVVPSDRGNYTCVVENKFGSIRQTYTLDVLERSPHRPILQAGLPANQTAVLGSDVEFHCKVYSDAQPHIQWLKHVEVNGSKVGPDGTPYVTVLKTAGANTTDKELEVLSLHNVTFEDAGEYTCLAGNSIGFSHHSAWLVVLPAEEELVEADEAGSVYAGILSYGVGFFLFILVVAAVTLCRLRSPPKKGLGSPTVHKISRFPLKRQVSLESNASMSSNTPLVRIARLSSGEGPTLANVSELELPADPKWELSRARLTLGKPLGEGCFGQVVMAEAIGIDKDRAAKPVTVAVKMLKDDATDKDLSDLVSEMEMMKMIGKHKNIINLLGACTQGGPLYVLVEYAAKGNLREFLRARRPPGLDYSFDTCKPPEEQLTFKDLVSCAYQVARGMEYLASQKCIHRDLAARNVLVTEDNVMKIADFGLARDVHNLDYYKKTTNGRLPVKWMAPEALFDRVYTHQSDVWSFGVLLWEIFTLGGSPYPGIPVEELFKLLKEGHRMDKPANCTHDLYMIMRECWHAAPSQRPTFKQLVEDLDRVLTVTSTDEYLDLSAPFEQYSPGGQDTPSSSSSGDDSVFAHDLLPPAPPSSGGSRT

By pIC50 is commonly meant the negative decadic logarithm of the IC50, by convention in mol/L. Lower therefore signals a high IC50. `Cc1c(-c2c(Cl)cccc2Cl)nc2c3cc(-c4cnn(C5CN(C(=O)c6cn(C)nn6)C5)c4)cnc3ccn12` [Example 13, (3-(4-(2-(2,6-Dichlorophenyl)-3-methylimidazo[2,1-J][1,6]naphthyridin-9-yl)-1H-pyrazol-1-yl)azetidin-1-yl)(1-methyl-1H-1,2,3-triazol-4-yl)methanone]: the negative-log IC50 (pIC50) was 7.30 to 8.00 in the test on RT-112/84 cell line (Homo sapiens, RT112/84, 72 h) and 8.30 to 9.00 in test [1].
For `O=C(CO)N1CCN(c2ccc(-c3cnc4ccn5c(CO)c(-c6c(Cl)cccc6Cl)nc5c4c3)cc2)CC1` [Example 10, 1-(4-(4-(2-(2,6-Dichlorophenyl)-3-(hydroxymethyl)imidazo[2,1-f][1,6]naphthyridin-9-yl)phenyl)piperazin-1-yl)-2-hydroxyethan-1-one] the same measures were 7.30 to 8.00 and 8.30 to 9.00.
As to `FC(F)c1c(-c2c(Cl)cccc2Cl)nc2c3cc(-c4cnn(C5CCOCC5)c4)cnc3ccn12` [Example 30, 2-(2,6-Dichlorophenyl)-3-(difluoromethyl)-9-(1-(tetrahydro-2H-pyran-4-yl)-1H-pyrazol-4-yl)imidazo[2,1-J][1,6]naphthyridine], the pIC50 is greater than 8.00 in the test with RT-112/84 cell line (Homo sapiens, RT112/84, 72 h) and greater than 9.00 in test [1].
Consider `Cc1c(-c2c(Cl)cccc2Cl)nc2c3cc(-c4cnn(C5CN(C(=O)c6nnn(C)n6)C5)c4)cnc3ccn12` [Example 14, (3-(4-(2-(2,6-Dichlorophenyl)-3-methylimidazo[2,1-J][1,6]naphthyridin-9-yl)-1H-pyrazol-1-yl)azetidin-1-yl)(2-methyl-2H-tetrazol-5-yl)methanone], for which the pIC50 in the test on RT-112/84 cell line (Homo sapiens, RT112/84, 72 h) was 7.30 to 8.00; in test [1] it was 8.30 to 9.00.
For `CC(=O)N1CCC(n2cc(-c3cnc4ccn5c(CO)c(-c6c(Cl)cccc6Cl)nc5c4c3)cn2)CC1` [Example 20, 1-(4-(4-(2-(2,6-Dichlorophenyl)-3-(hydroxymethyl)imidazo[2,1-f][1,6]naphthyridin-9-yl)-1H-pyrazol-1-yl)piperidin-1-yl)ethan-1-one] the same measures were greater than 8.00 and greater than 9.00.
In the same order, the values of `Nc1c(-c2c(Cl)cccc2Cl)nc2c3cc(-c4cnn(C5CCOCC5)c4)cnc3ccn12` [Example 35, 2-(2,6-Dichlorophenyl)-9-(1-(tetrahydro-2H-pyran-4-yl)-1H-pyrazol-4-yl)imidazo[2,1-f][1,6]naphthyridin-3-amine] are 7.30 to 8.00 and 8.30 to 9.00.
For `N#Cc1ccc(Cn2cc(-c3cnc4ccn5c(CO)c(-c6c(Cl)cccc6Cl)nc5c4c3)cn2)cn1` [Example 3, 5-((4-(2-(2,6-Dichlorophenyl)-3-(hydroxymethyl)imidazo[2,1-f][1,6]naphthyridin-9-yl)-1H-pyrazol-1-yl)methyl)picolinonitrile] the same measures were greater than 8.00 and greater than 9.00.
In the case of `CC(C)(C(N)=O)n1cc(-c2cnc3ccn4c(C(F)F)c(-c5c(Cl)cccc5Cl)nc4c3c2)cn1` [Example 33, 2-(4-(2-(2,6-Dichlorophenyl)-3-(difluoromethyl)imidazo[2,1-f][1,6]naphthyridin-9-yl)-1H-pyrazol-1-yl)-2-methylpropanamide], the negative-log IC50 (pIC50) in the test on RT-112/84 cell line (Homo sapiens, RT112/84, 72 h) is greater than 8.00; in test [1], greater than 9.00.
For `O=C(c1ccc(-c2cnc3ccn4c(CO)c(-c5c(Cl)cccc5Cl)nc4c3c2)cc1)N1CCOCC1` [Example 6, (4-(2-(2,6-Dichlorophenyl)-3-(hydroxymethyl)imidazo[2,1-f][1,6]naphthyridin-9-yl)phenyl)(morpholino)methanone] the same measures were 7.30 to 8.00 and 8.30 to 9.00.
Regarding `CC(C#N)n1cc(-c2cnc3ccn4c(CO)c(-c5c(Cl)cccc5Cl)nc4c3c2)cn1` (single isomer, unassigned) [17 peak 2], the pIC50 in the test with RT-112/84 cell line is greater than 8.00; in test [1], greater than 9.00.
As to `O=C(CO)N1CCN(Cc2ccc(-c3cnc4ccn5c(CO)c(-c6c(Cl)cccc6Cl)nc5c4c3)cc2)CC1` [Example 8, 1-(4-(4-(2-(2,6-Dichlorophenyl)-3-(hydroxymethyl)imidazo[2,1-f][1,6]naphthyridin-9-yl)benzyl)piperazin-1-yl)-2-hydroxyethan-1-one], the negative logarithm of the IC50 (pIC50) with RT-112/84 cell line (Homo sapiens, RT112/84, 72 h) is 7.30 to 8.00; in test [1] it was 8.30 to 9.00.
In the same order, the values of `N#Cc1cncc(Cn2cc(-c3cnc4ccn5c(CO)c(-c6c(Cl)cccc6Cl)nc5c4c3)cn2)c1` [Example 2, 5-((4-(2-(2,6-Dichlorophenyl)-3-(hydroxymethyl)imidazo[2,1-f][1,6]naphthyridin-9-yl)-1H-pyrazol-1-yl)methyl)nicotinonitrile] are 7.30 to 8.00 and greater than 9.00.
`N#Cc1cc(Cn2cc(-c3cnc4ccn5c(CO)c(-c6c(Cl)cccc6Cl)nc5c4c3)cn2)ccn1` [Example 4, 4-((4-(2-(2,6-Dichlorophenyl)-3-(hydroxymethyl)imidazo[2,1-f][1,6]naphthyridin-9-yl)-1H-pyrazol-1-yl)methyl)picolinonitrile]: the pIC50 in the test on RT-112/84 cell line (Homo sapiens, RT112/84, 72 h) is greater than 8.00; in test [1], greater than 9.00.
In the same order, the values of `CCn1cc(-c2cnc3ccn4c(CO)c(-c5c(Cl)cccc5Cl)nc4c3c2)cn1` [Example 15, (2-(2,6-Dichlorophenyl)-9-(1-ethyl-1H-pyrazol-4-yl)imidazo[2,1-f][1,6]naphthyridin-3-yl)methanol] are greater than 8.00 and 8.30 to 9.00.
In the case of `Cc1cccc(Cl)c1-c1nc2c3cc(-c4cnn(C5CCN(C)CC5)c4)cnc3ccn2c1CO` [Example 11, (2-(2-Chloro-6-methylphenyl)-9-(1-(1-methylpiperidin-4-yl)-1H-pyrazol-4-yl)imidazo[2,1-J][1,6]naphthyridin-3-yl)methanol], the negative logarithm of the IC50 (pIC50) with RT-112/84 cell line (Homo sapiens, RT112/84, 72 h) was 7.30 to 8.00; in test [1], 8.30 to 9.00.
In the same order, the values of `OCc1c(-c2c(Cl)cccc2Cl)nc2c3cc(-c4cnn(CC5(F)CCOCC5)c4)cnc3ccn12` [Example 25, (2-(2,6-Dichlorophenyl)-9-(1-((4-fluorotetrahydro-2H-pyran-4-yl)methyl)-1H-pyrazol-4-yl)imidazo[2,1-J][1,6]naphthyridin-3-yl)methanol] are greater than 8.00 and greater than 9.00.
For `OCCn1cc(-c2cnc3ccn4c(C(F)F)c(-c5c(Cl)cccc5Cl)nc4c3c2)cn1` [Example 31, 2-(4-(2-(2,6-Dichlorophenyl)-3-(difluoromethyl)imidazo[2,1-f][1,6]naphthyridin-9-yl)-1H-pyrazol-1-yl)ethan-1-ol] the same measures were greater than 8.00 and greater than 9.00.
